Target: T1, pancreatic α-amylase (Homo sapiens, UniProt P04746)
T1 construct: purchased Sigma-Aldrich
T1 sequence (P04746 16-511): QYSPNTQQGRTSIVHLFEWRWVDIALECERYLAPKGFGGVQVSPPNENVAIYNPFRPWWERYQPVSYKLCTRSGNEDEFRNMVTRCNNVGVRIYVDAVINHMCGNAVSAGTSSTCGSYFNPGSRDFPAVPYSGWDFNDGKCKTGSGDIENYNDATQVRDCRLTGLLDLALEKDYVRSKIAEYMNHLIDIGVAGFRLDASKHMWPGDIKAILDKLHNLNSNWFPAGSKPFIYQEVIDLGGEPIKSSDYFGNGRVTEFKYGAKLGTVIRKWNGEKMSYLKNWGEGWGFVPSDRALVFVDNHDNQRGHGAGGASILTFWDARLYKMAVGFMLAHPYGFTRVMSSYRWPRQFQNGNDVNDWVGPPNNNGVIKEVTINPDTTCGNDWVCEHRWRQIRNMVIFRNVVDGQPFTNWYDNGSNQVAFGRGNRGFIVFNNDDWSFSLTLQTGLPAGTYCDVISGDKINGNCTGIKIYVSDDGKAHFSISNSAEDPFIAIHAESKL
Test: In vitro inhibition of pancreatic α-amylase (starch, DNSA)
Type: biochemical
Settings: pure commercial standards; triplicate; Figure 7 A-C
Description: Pancreatic α-amylase inhibition activity was assessed according to the method described by Daoudiet al. [25]. […] The solutions were prepared by dissolving the enzymes and samples in a phosphate buffer solution (0.1 M, pH 6.9). The mixtures were incubated for 10 min at 37 °C. Next, 200 μL of 1% starch also dissolved in a phosphate buffer was added to the reaction mixture, and all test tubes were incubated for another 20 min at 37 °C. To stop the reaction, 600 μL of DNSA (1 g of 3,5-dinitrosalicylic acid dissolved in 20 mL of NaOH(2N), combined with 30 g of KNaC4H4O6, and filled up to 100 mL with distilled water) was added. Afterward, the mixture was posed in a water bath at 100 °C for 8 min, then it was put in an ice-cold-water bath for a few minutes. About 1 mL of distilled water was added to the sample tubes before their absorbance measurement at 540 nm.
The percentage of inhibition was computed using the following formula:(2) Inhibitory activity (%)=Abs control 540 nm− Abs sample 540 nm/Abs control 540 nm×100
Increasing concentrations were utilized to calculate the IC50 value. The enzymatic assays were carried out as indicated above.

IC50	Structure (SMILES)
30.8 ± 2.11 µM	Oc1cc(O)c2c(c1)O[C@@H](c1ccc(O)c(O)c1)[C@H](O)C2 [Catechin, (−)-catechin]
29.4 ± 4.57 µM	O=c1oc2c(O)c(O)cc3c(=O)oc4c(O)c(O)cc1c4c23 [Ellagic acid]

— PMC9103815, “Phytochemical Analysis, α-Glucosidase and α-Amylase Inhibitory Activities and Acute Toxicity Studies of Extracts from Pomegranate (Punica granatum) Bark, a Valuable Agro-Industrial By-Product” (Foods, 2022)
